According to patent US20060083738A1, “Treatment of cancer by the use of anti fas antibody” (FUSION ANTIBODIES LIMITED, priority 2002, published 2006):

Assays:
Type in all cases: cell-based
Fas [1] = assay: Fas expression in response to 5FU treatment, MCF-7; conditions: MCF-7 breast cancer cell line
Description: (§1) FIG. 1 illustrates FAS/CD95 expression in response to 5-FU and tomudex (TDX).
(§2) Moreover, procaspase 8 and BID cleavage are not observed in cells treated with either 5PU or anti-Fas monoclonal antibody alone. However, both are activated following co-treatment with 5FU and anti-Fas monoclonal antibody (indicated by loss of full-length procaspase 8 and BID).

Fas [2] = assay: Fas expression in response to 5FU treatment, HCT116; conditions: HCT116 colorectal cancer cell line
Description: as §1, §2

[3] = tested on: procaspase 8, BID, c-FLIP, FasL; assay: Expression and activation of apoptosis regulating proteins in drug-treated cells
Experimental: FIG. 2 illustrates expression of apoptosis regulating proteins in MCF-7 cells 72 hours after treatment with 10 μM 5-FU or 100 nM TDX.
as §2

Fas / FasL interaction = assay: Immunoprecipitation of Fas receptor and FasL; conditions: 5FU treatment, FIG. 1B

O=c1[nH]cc(F)c(=O)[nH]1 [5FU, 5-Fluorouracil]
up-regulation of Fas expression (Fas [1]): > 10 fold
up-regulation of Fas expression (Fas [2]): > 10 fold
FasL expression ([3]; 5FU treatment): unaffected
activation of procaspase 8 or BID ([3]; 5FU-treated MCF-7 and HCT116 cells, FIG. 1A): does not result in activation of procaspase 8 or BID
c-FLIP expression ([3]; 5FU-treated cells or co-treated cells): up-regulated
procaspase 8 and BID cleavage ([3]; single agent or co-treatment, loss of full-length procaspase 8 and BID): not observed
interaction between receptor (Fas) and ligand (FasL) (Fas / FasL interaction): up-regulated
